Source: patent US9273028B2, “Heterocyclic tyrosine kinase inhibitors” (Biogen MA Inc., priority 2010, dated 2016)

Target: T1, BTK (Homo sapiens, UniProt Q06187)
T1 construct: purchased Upstate 14-552
Test: In vitro BTK kinase assay (BTK-POLYGAT-LS)
Type: biochemical
Details: IC50 (10 uM ATP)
Method: In vitro BTK Kinase Assay
The purpose of the BTK in vitro assay is to determine compound potency against BTK through the measurement of IC50. […] For a typical assay, a 24 μL aliquot of a ATP/peptide master mix (final concentration; ATP 10 μM, polyGAT 100 nM) in kinase buffer (10 mM Tris-HCl pH 7.5, 10 mM MgCl2, 200 μM Na3PO4, 5 mM DTT, 0.01% Triton X-100, and 0.2 mg/ml casein) is added to each well. […] The assay is incubated for 30 minutes before being stopped with 28 μL of a 50 mM EDTA solution. […] The plate is covered and incubated for 45 minutes at room temperature.

T1 sequence (Q06187 whole entry): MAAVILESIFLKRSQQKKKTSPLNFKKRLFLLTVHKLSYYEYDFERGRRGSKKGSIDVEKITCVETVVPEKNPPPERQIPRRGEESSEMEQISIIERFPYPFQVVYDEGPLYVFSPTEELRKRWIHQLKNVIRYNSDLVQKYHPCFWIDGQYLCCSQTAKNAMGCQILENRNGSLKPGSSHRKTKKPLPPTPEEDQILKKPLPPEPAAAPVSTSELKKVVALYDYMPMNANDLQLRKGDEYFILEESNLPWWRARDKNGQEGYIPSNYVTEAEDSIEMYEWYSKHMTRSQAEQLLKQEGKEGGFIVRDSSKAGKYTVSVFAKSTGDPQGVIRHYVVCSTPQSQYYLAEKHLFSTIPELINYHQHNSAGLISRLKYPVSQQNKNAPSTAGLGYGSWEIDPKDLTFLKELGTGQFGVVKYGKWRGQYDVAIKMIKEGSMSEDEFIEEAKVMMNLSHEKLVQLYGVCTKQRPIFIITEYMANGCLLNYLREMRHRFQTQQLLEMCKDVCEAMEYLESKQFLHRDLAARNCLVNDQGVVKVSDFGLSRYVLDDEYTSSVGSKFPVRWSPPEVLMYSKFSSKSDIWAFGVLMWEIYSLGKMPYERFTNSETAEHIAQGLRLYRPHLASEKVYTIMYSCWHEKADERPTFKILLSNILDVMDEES

IC50 [nM] | SMILES
1000 to 10000 | C[C@H]1[C@@H](Nc2ncnc3[nH]ncc23)CCCN1C(=O)CNc1ccccc1S(=O)(=O)N1CCCCC1 [Compound 21]
< 100 | O=C(CNc1cccc(Cl)c1)N1CCCC(Nc2ncnc3[nH]ccc23)C1C(F)(F)F (stereo not drawn) [Compound 20]
> 10000 | CC(=O)Nc1cc(N(C)[C@H]2CCCN(C(=O)CNc3cc(Cl)cc(Cl)c3)C2)ncn1 [Compound 128]
> 10000 | O=C(CNc1cc(Cl)cc(Cl)c1)N1CCC[C@H](Nc2cc(Br)ncc2[N+](=O)[O-])C1 [Compound 136]
< 100 | CC1C2C(CCN1C(=O)CNc1cc(Cl)cc(Cl)c1)CCN2c1ncnc2[nH]ccc12 (stereo not drawn) [Compound 57]
< 100 | C[C@@H]1C[C@H](N(C)c2ncnc3[nH]ccc23)CN(C(=O)CNc2cc(Cl)cc(Cl)c2)C1 [Compound 98]
< 100 | C[C@@H]1[C@H](Nc2ncnc3[nH]ncc23)CCCN1C(=O)CNc1ccccc1S(=O)(=O)N1CCCCC1 [Compound 22]
< 100 | NC(=O)c1cnc2[nH]ccc2c1NC1CCCN(C(=O)CNc2cc(F)cc(Cl)c2)C1 (stereo not drawn) [Compound 229]
100 to 999 | CN(c1ncnc2[nH]ccc12)[C@H]1CCCN(C(=O)CNc2cc(Cl)cc(C(F)(F)F)c2)C1 [Compound 142]
100 to 999 | CNc1cc(NC2CCCN(C(=O)CNc3cc(Cl)cc(Cl)c3)C2)ncn1 (stereo not drawn) [Compound 83]
100 to 999 | Nc1ncnc(N[C@H]2CCCN(C(=O)CNc3cc(Cl)cc(Cl)c3)C2)c1F [Compound 110]
100 to 999 | CCC1C(Nc2ncnc3[nH]ccc23)CCCN1C(=O)CNc1cc(F)cc(Cl)c1 (stereo not drawn) [Compound 7]
> 10000 | O=C(CNc1cc(Cl)cc(Cl)c1)N1CCC(c2ccccc2)C(Nc2ncnc3[nH]ccc23)C1 (stereo not drawn) [Compound 137]
100 to 999 | O=C(CNc1cc(Cl)cc(Cl)c1)N1CCC[C@H](Nc2ncnc3[nH]ccc23)[C@@H]1C(F)(F)F [Compound 11]
< 100 | CC1C(N(C)c2ncnc(N)c2F)CCCN1C(=O)CNc1cc(Cl)cc(Cl)c1 (stereo not drawn) [Compound 49]
< 100 | C[C@@H]1C[C@@H]2CCN(C(=O)CNc3cc(Cl)cc(Cl)c3)C[C@@H]2N1c1ncnc2[nH]ccc12 [Compound 46]
1000 to 10000 | O=C(CNc1cccc(F)c1)N1CCC[C@H](Nc2ncnc3[nH]ccc23)C1 [Compound 188]
> 10000 | O=C(CNc1ccccc1F)N1CCC[C@H](Nc2ncnc3[nH]ccc23)C1 [Compound 194]
100 to 999 | C[C@H]1[C@H](Nc2ncnc3[nH]ncc23)CCCN1C(=O)CNc1cc(F)cc(Cl)c1 [Compound 26]
> 10000 | O=C(CNc1ccc(F)cc1)N1CCC[C@H](Nc2ncnc3[nH]ncc23)C1 [Compound 205]
100 to 999 | O=C(CNc1cc(Cl)cc(Cl)c1)N1C[C@@H](Nc2ncnc3[nH]ccc23)C[C@@H](C(F)(F)F)C1 [Compound 122]
> 10000 | CCn1cnc2cnc(N[C@H]3CCCN(C(=O)CNc4cc(Cl)cc(Cl)c4)C3)cc21 [Compound 158]
< 100 | C[C@@H]1C[C@H]2CCN(C(=O)CNc3cc(Cl)cc(Cl)c3)C[C@H]2N1c1ncnc2[nH]ccc12 [Compound 47]
1000 to 10000 | O=C(CNc1cc(Cl)cc(Cl)c1)N1CCC[C@@H](Nc2ncnc3[nH]cnc23)C1 [Compound 10]
1000 to 10000 | O=C(CNc1cc(C(F)(F)F)cc(C(F)(F)F)c1)N1CCC[C@H](Nc2ncnc3[nH]ccc23)C1 [Compound 187]
100 to 999 | O=C(CNc1ccccc1)N1CCCC(Nc2ncnc3[nH]ccc23)C1C(F)(F)F (stereo not drawn) [Compound 18]
> 10000 | O=C(CNc1cc(Cl)cc(Cl)c1)N1CC[C@H](Nc2ncnc3[nH]ccc23)C1 [Compound 152]

The remaining lines, values behind:

SMILES | IC50 [nM]
CN(c1ncnc2[nH]ncc12)[C@@H]1CCCN(C(=O)CNc2cc(Cl)cc(Cl)c2)C1 [Compound 211] | < 100
CC1C(Nc2ncnc3[nH]ncc23)CCCN1C(=O)CNc1ccccc1S(=O)(=O)N1CCCC1 (stereo not drawn) [Compound 70] | < 100
CC1C(Nc2ncnc3[nH]ccc23)CCCN1C(=O)CNc1cc(F)cc(Cl)c1 (stereo not drawn) [Compound 71] | < 100
CC1C(Nc2ncnc3[nH]ncc23)CCCN1C(=O)[C@H](Nc1cc(Cl)cc(Cl)c1)C1CC1 (stereo partly drawn) [Compound 52] | < 100
CC1C(Nc2ncnc3[nH]ccc23)CCCN1C(=O)CNc1ccccc1S(=O)(=O)C1CCCC1 (stereo not drawn) [Compound 73] | < 100
CC1C(Nc2ncnc3[nH]ncc23)CCCN1C(=O)CNc1cc(F)cc(Cl)c1 (stereo not drawn) [Compound 68] | < 100
CN(c1ncnc(N)c1C(N)=O)[C@H]1CCCN(C(=O)CNc2cc(Cl)cc(Cl)c2)C1 [Compound 125] | > 10000
O=C(O)CN(c1ncnc2[nH]ccc12)[C@@H]1CCCN(C(=O)CNc2cc(Cl)cc(Cl)c2)C1 [Compound 36] | 1000 to 10000
CN(c1ncnc2[nH]ncc12)[C@H]1CCCN(C(=O)CNc2cc(F)cc(Cl)c2)C1 [Compound 146] | 1000 to 10000
O=C([C@H](Nc1cc(Cl)cc(Cl)c1)C1CC1)N1CCC[C@@H](Nc2ncnc3[nH]ccc23)C1 [Compound 207] | 100 to 999
C[C@@H]1[C@@H](Nc2ncnc3[nH]ncc23)CCCN1C(=O)CNc1cc(Cl)cc(Cl)c1 [Compound 28] | 100 to 999
CCC[C@@H](Nc1cc(Cl)cc(Cl)c1)C(=O)N1CCCC(Nc2ncnc3[nH]ncc23)C1C (stereo partly drawn) [Compound 61] | < 100
CN(c1ncnc2c1CCC(=O)N2)[C@H]1CCCN(C(=O)CNc2cc(Cl)cc(Cl)c2)C1 [Compound 129] | > 10000
CC(=O)Nc1cc(NC2CCCN(C(=O)CNc3cc(Cl)cc(Cl)c3)C2)ncn1 (stereo not drawn) [Compound 85] | 1000 to 10000
O=C1C(Nc2cc(F)cc(Cl)c2)CC2CCC(Nc3ncnc4[nH]ccc34)CN12 (stereo not drawn) [Compound 53] | 1000 to 10000
COc1c(N)ncnc1N[C@H]1CCCN(C(=O)CNc2cc(Cl)cc(Cl)c2)C1 [Compound 168] | > 10000
CCC1C(Nc2ncnc(N)c2F)CCCN1C(=O)CNc1cc(F)cc(Cl)c1 (stereo not drawn) [Compound 5] | 1000 to 10000
O=C(CNc1ccccc1S(=O)(=O)N1CCCCC1)N1CCC[C@H](Nc2ncnc3[nH]ccc23)C1 [Compound 138] | > 10000
CCC[C@@H](Nc1cccc(Cl)c1)C(=O)N1CCC2CCN(c3ncnc4[nH]ccc34)C2C1 (stereo partly drawn) [Compound 102] | < 100
O=C(CNc1cc(Cl)cc(Cl)c1)N1CC[C@@H](Nc2ncnc3[nH]ccc23)C1 [Compound 155] | > 10000
O=C1CCc2c(ncnc2N[C@H]2CCCN(C(=O)CNc3cc(Cl)cc(Cl)c3)C2)N1 [Compound 154] | > 10000
